# According to PubChem BioAssay (NCI):
#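 These data come from cells grown in 96-well plates and exposed to compound for 48 hours at five concentrations. The concentration for 50% growth inhibition is given as GI50. Definition used: TGI = concentration required for complete inhibition of growth.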
# Assays:
# Assay in all cases: NCI anticancer screen, dose series, 48 h
# SNB-19 CNS = system: SNB-19 CNS
# KM12 colon = system: KM12 colon
# SF-295 CNS = system: SF-295 CNS
# T-47D breast = system: T-47D breast
# LOX IMVI melanoma = system: LOX IMVI melanoma
# SW-620 colon = system: SW-620 colon
# SK-MEL-28 melanoma = system: SK-MEL-28 melanoma
# SNB-75 CNS = system: SNB-75 CNS
# UACC-257 melanoma = system: UACC-257 melanoma
# BT-549 breast = system: BT-549 breast
# COLO 205 colon = system: COLO 205 colon
# UACC-62 melanoma = system: UACC-62 melanoma
# HCC-2998 colon = system: HCC-2998 colon
# MDA-MB-231 breast = system: MDA-MB-231 breast
# MDA-MB-435 = system: MDA-MB-435
# OVCAR-5 ovarian = system: OVCAR-5 ovarian
# SN12C renal = system: SN12C renal
# SR leukemia = system: SR leukemia
# HCT-116 colon = system: HCT-116 colon
# NCI/ADR-RES ovarian = system: NCI/ADR-RES ovarian
# HOP-62 NSCLC = system: HOP-62 NSCLC
# HT29 colon = system: HT29 colon
# MALME-3M melanoma = system: MALME-3M melanoma
# SF-268 CNS = system: SF-268 CNS
# MOLT-4 leukemia = system: MOLT-4 leukemia
# PC-3 prostate = system: PC-3 prostate
# ACHN renal = system: ACHN renal
# SF-539 CNS = system: SF-539 CNS
smiles,measurement,setting,value
CC(C)n1c(=O)n(C)c2cnc3cc(F)c(-c4ccc(OCCCN5CCCCC5)nc4)cc3c21,GI50,SNB-19 CNS,17.4 µM
same,TGI,SNB-19 CNS,77.5 µM
same,GI50,KM12 colon,4.19 µM
same,TGI,KM12 colon,28.8 µM
same,GI50,SF-295 CNS,3.99 µM
same,TGI,SF-295 CNS,16.4 µM
same,GI50,T-47D breast,9.65 µM
same,TGI,T-47D breast,38.8 µM
same,GI50,LOX IMVI melanoma,4.13 µM
same,TGI,LOX IMVI melanoma,16.6 µM
same,GI50,SW-620 colon,14.3 µM
same,TGI,SW-620 colon,42.3 µM
same,GI50,SK-MEL-28 melanoma,13.5 µM
same,TGI,SK-MEL-28 melanoma,32.4 µM
same,GI50,SNB-75 CNS,4.24 µM
same,TGI,SNB-75 CNS,18.1 µM
same,GI50,UACC-257 melanoma,16.4 µM
same,TGI,UACC-257 melanoma,36.8 µM
same,GI50,BT-549 breast,10.1 µM
same,TGI,BT-549 breast,28.4 µM
same,GI50,COLO 205 colon,7.39 µM
same,TGI,COLO 205 colon,23.4 µM
same,GI50,UACC-62 melanoma,14.1 µM
same,TGI,UACC-62 melanoma,29.3 µM
same,GI50,HCC-2998 colon,23.3 µM
same,TGI,HCC-2998 colon,> 100 µM
same,GI50,MDA-MB-231 breast,11.4 µM
same,TGI,MDA-MB-231 breast,27.6 µM
same,GI50,MDA-MB-435,17 µM
same,TGI,MDA-MB-435,71.4 µM
same,GI50,OVCAR-5 ovarian,15.7 µM
same,TGI,OVCAR-5 ovarian,55.7 µM
same,GI50,SN12C renal,7.14 µM
same,TGI,SN12C renal,42.8 µM
same,GI50,SR leukemia,5.76 µM
same,TGI,SR leukemia,32.2 µM
same,GI50,HCT-116 colon,10.9 µM
same,TGI,HCT-116 colon,27.4 µM
same,GI50,NCI/ADR-RES ovarian,12.4 µM
same,TGI,NCI/ADR-RES ovarian,81.3 µM
same,GI50,HOP-62 NSCLC,4.99 µM
same,TGI,HOP-62 NSCLC,28.3 µM
same,GI50,HT29 colon,8.5 µM
same,TGI,HT29 colon,37.2 µM
same,GI50,MALME-3M melanoma,10.6 µM
same,TGI,MALME-3M melanoma,23.4 µM
same,GI50,SF-268 CNS,11.9 µM
same,TGI,SF-268 CNS,40.2 µM
same,GI50,MOLT-4 leukemia,5.47 µM
same,TGI,MOLT-4 leukemia,41.5 µM
same,GI50,PC-3 prostate,6.94 µM
same,TGI,PC-3 prostate,37.1 µM
same,GI50,ACHN renal,16.2 µM
same,TGI,ACHN renal,76.8 µM
same,GI50,SF-539 CNS,8.38 µM
same,TGI,SF-539 CNS,22.9 µM
